The values below come from patent publication US7135466B2 (Kirin Beer Kabushiki Kaisha, priority 1999, dated 2006).

The structures appear in SMILES notation.

The term inhibition denotes the drop in the measured response relative to a control, in per cent. What is called IC50 is the concentration needed to halve the response being measured.

Experiment [1] deals with T1, c-kit (Homo sapiens, UniProt P10721).
T1 construct: MO7e (human megakaryocytic leukemia cell line) which had been arrested for 20 hr; endogenous in cells; host or cells: MO7e human megakaryocytic leukemia cell line
Nature of the experiment: Inhibitory activity against c-kit autophosphorylation (MO7e cells, h-SCF). The experiment is classed as cell-based. The following applies: for inhibition at 1 µM: Mo7e; for IC50: MO7e cells, h-SCF stimulation, read-out: c-kit IC50. The procedure, abridged:
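Growth-arrested (20 hr) MO7e; cpd in DMSO, 1 hr; h-SCF 50 ng/ml, 5 min; lyse. ELISA: anti-pTyr (PY-20) capture, anti-c-kit 1° Ab, HRP anti-rabbit 2° Ab, A450.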

In experiment [2] the target is T2, PDGF-Ra (Homo sapiens, UniProt P16234).
T2 construct: host or cells: G-292 human osteosarcoma cells
The experiment can be described thus: Inhibitory activity against PDGF-Ra phosphorylation by PDGF-AA stimulation using G292. The experiment is classed as cell-based. The conditions noted are these: for IC50: > means inhibition at indicated concentration not more than 50%, < and << not less than 50%, read-out: PDGF (E) IC50; for inhibition at 0.1 µM: G292, figure in parentheses in >100( ), at 100 nM, read-out: PDGF (E) inhibition (%) at 100 nM. The method, boiled down:
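In G-292 osteosarcoma cells kept overnight in 0.1% FBS, compound exposure (1 hr, 37 °C) preceded PDGF-AA stimulation at 50 ng/ml for 5 min; receptor phosphotyrosine was then detected by PY-20 capture ELISA.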

Where [3] appears, read: figure in parentheses in −( ), at 1000 nM.

T2 sequence (P16234 24-1089): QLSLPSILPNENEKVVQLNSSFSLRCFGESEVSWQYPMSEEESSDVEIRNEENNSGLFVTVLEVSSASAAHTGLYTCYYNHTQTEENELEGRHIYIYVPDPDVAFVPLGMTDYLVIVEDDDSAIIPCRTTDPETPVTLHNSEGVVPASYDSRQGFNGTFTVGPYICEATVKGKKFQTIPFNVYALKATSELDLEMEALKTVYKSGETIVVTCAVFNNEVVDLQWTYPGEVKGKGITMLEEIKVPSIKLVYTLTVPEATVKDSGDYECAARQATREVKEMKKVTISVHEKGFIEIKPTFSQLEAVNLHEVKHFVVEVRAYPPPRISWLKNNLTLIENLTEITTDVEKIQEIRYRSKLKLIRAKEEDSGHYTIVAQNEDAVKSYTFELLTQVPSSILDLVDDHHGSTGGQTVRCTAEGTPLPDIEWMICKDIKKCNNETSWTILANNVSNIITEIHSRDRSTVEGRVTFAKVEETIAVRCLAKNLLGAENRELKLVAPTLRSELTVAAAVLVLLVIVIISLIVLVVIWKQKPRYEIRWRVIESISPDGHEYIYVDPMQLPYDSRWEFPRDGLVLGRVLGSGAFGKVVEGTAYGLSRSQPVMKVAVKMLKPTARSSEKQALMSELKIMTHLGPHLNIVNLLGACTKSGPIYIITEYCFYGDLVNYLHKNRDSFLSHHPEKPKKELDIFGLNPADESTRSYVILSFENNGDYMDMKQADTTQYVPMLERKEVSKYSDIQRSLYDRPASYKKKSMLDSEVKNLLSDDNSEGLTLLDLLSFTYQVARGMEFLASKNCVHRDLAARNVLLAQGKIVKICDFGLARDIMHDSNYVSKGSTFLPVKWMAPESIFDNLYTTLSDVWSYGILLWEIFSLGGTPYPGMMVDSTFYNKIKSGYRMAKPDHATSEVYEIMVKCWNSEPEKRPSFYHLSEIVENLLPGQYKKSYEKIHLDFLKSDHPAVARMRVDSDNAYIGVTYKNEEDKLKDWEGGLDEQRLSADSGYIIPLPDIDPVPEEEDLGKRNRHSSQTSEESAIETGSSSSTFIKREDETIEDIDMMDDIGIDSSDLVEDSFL
T1 sequence (P10721 26-976): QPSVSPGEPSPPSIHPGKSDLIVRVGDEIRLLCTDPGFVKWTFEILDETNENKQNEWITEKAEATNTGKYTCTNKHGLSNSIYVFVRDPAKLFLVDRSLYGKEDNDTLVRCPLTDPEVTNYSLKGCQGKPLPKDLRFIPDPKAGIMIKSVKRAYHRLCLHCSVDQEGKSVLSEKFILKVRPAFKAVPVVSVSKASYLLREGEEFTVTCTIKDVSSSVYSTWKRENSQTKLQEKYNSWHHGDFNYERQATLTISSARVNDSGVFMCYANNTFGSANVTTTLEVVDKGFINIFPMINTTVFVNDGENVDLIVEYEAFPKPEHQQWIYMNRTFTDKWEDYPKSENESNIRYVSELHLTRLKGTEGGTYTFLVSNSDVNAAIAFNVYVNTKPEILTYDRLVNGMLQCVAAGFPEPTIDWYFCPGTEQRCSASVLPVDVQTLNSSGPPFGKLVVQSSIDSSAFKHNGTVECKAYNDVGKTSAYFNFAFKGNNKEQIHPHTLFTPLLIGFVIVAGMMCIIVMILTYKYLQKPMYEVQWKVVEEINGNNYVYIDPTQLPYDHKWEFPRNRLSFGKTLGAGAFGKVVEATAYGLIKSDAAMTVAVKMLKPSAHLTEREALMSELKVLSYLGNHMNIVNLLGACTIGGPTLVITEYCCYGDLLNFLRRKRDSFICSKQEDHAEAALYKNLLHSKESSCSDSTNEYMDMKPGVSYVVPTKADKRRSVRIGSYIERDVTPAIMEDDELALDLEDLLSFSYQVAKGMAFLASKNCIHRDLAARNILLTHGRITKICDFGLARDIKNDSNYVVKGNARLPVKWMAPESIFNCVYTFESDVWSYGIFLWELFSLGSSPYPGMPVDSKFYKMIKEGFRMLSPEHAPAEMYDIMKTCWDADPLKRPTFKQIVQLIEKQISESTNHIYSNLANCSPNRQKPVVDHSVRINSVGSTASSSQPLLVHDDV

Regarding `CCOCCC(=O)NC(=S)Nc1ccc(Oc2ccnc3cc(OC)c(OC)cc23)c(Cl)c1` [Example 1071, N-{3-Chloro-4-[(6,7-dimethoxy-4-quinolyl)oxy]phenyl}-N′-(3-ethoxypropanoyl)thiourea], the inhibition at 1 µM in experiment [1] (setting [3]) was determined as 0%. In addition, in experiment [2], the IC50 was greater than 0.1 µM and the inhibition at 0.1 µM was found to be 17%.

In the case of `CCCCC(C)C(=O)NC(=S)Nc1ccc(Oc2ccnc3cc(OC)c(OC)cc23)cc1` (stereo not shown) [Example 1074, N-{4-[(6,7-Dimethoxy-4-quinolyl)oxy]phenyl}-N′-(2-methylhexanoyl)thiourea], the IC50 is 0.289 µM in experiment [1] and less than 0.01 µM in experiment [2].

For the compound `CCCCC(C)C(=O)NC(=S)Nc1ccc(Oc2ccnc3cc(OC)c(OC)cc23)c(Cl)c1` (stereo not shown) [Example 1077, N-{3-Chloro-4-[(6,7-dimethoxy-4-quinolyl)oxy]phenyl}-N′-(2-methylhexanoyl)thiourea], the IC50 in experiment [1] came to 0.379 µM; in experiment [2], 0.048 µM.

On to `COc1cc2nccc(Oc3ccc(NC(=S)NC(=O)c4ccccc4C)c(Cl)c3)c2cc1OC` [Example 1101, N-{2-Chloro-4-[(6,7-dimethoxy-4-quinolyl)oxy]phenyl}-N′-(2-methylbenzoyl)thiourea], for which the inhibition at 1 µM in experiment [1] (setting [3]) was determined as 26%. In experiment [2], the IC50 is greater than 0.1 µM and the inhibition at 0.1 µM came to 37%.

Turning to `COc1cc2nccc(Oc3ccc(NC(=S)NC(=O)c4ccc(C)cc4)c(Cl)c3)c2cc1OC` [Example 1102, N-{2-Chloro-4-[(6,7-dimethoxy-4-quinolyl)oxy]phenyl}-N′-(4-methylbenzoyl)thiourea], the inhibition at 1 µM in experiment [1] (setting [3]) came out at 11%. Besides, in experiment [2], the IC50 is greater than 0.1 µM and the inhibition at 0.1 µM turned out to be 38%.

Consider `COc1cc2nccc(Oc3ccc(NC(=S)NC(=O)c4ccccc4OC)c(Cl)c3)c2cc1OC` [Example 1103, N-{2-Chloro-4-[(6,7-dimethoxy-4-quinolyl)oxy]phenyl}-N′-(2-methoxybenzoyl)thiourea], for which the inhibition at 1 µM in experiment [1] (setting [3]) is 3%. Further, in experiment [2], the IC50 was greater than 0.1 µM and the inhibition at 0.1 µM is 25%.

`COc1cc2nccc(Oc3ccc(NC(=S)NC(=O)c4ccccc4Cl)c(Cl)c3)c2cc1OC` [Example 1104, N-(2-Chlorobenzoyl)-N′-{2-chloro-4-[(6,7-dimethoxy-4-quinolyl)oxy]phenyl}thiourea]: in experiment [1] (setting [3]), the inhibition at 1 µM is 23%. The IC50 in experiment [2] was determined as 0.077 µM.

Regarding `COc1cc2nccc(Oc3ccc(NC(=S)NC(=O)Cc4ccccc4)c(C)c3C)c2cc1OC` [Example 1105, N-{4-[(6,7-Dimethoxy-4-quinolyl)oxy]-2,3-dimethylphenyl}-N′-(2-phenylacetyl)thiourea], in experiment [1] (figure in parentheses in −( ), at 1000 nM, 1 µM), the “c-kit inhibition (%) at 1000 nM” value is on record as “−(1) %”. Also, in experiment [2], the IC50 is greater than 0.1 µM and the inhibition at 0.1 µM is 31%.

As to `COc1cc2nccc(Oc3ccc(NC(=S)NC(=O)CCC4CCCC4)c(Cl)c3)c2cc1OC` [Example 1106, N-{2-Chloro-4-[(6,7-dimethoxy-4-quinolyl)oxy]phenyl}-N′-(3-cyclopentylpropanoyl)thiourea], the inhibition at 1 µM in experiment [1] (setting [3]) is 0%. Moreover, in experiment [2], the IC50 is greater than 0.1 µM and the inhibition at 0.1 µM is 30%.

For `COc1cc2nccc(Oc3ccc(NC(=S)NC(=O)c4ccccc4)c(Cl)c3)c2cc1OC` [Example 1107, N-Benzoyl-N′-{2-chloro-4-[(6,7-dimethoxy-4-quinolyl)oxy]phenyl}thiourea], the inhibition at 1 µM in experiment [1] (setting [3]) amounted to 24%. In experiment [2], the IC50 is greater than 0.1 µM and the inhibition at 0.1 µM amounted to 46%.

Regarding `COc1cc2nccc(Oc3ccc(NC(=S)NC(=O)c4cc(Cl)cc(Cl)c4)c(F)c3)c2cc1OC` [Example 1122, N-(3,5-Dichlorobenzoyl)-N′-{4-[(6,7-dimethoxy-4-quinolyl)oxy]-2-fluorophenyl}thiourea], the inhibition at 1 µM in experiment [1] (setting [3]) is 26%. In addition, in experiment [2], the 50% inhibitory concentration (IC50) was greater than 0.1 µM and the inhibition at 0.1 µM came to 48%.

Regarding `COc1cc2nccc(Oc3ccc(NC(=S)NC(=O)c4ccc(-c5ccccc5)cc4)c(F)c3)c2cc1OC` [Example 1125, N-(4-Phenylbenzoyl)-N′-{4-[(6,7-dimethoxy-4-quinolyl)oxy]-2-fluorophenyl}thiourea], the inhibition at 1 µM in experiment [1] (setting [3]) worked out at 8%. Besides, in experiment [2], the IC50 was greater than 0.1 µM and the inhibition at 0.1 µM came to 22%.

`COc1cc2nccc(Oc3ccc(NC(=S)NC(=O)c4ccc5c(c4)OCO5)cc3Cl)c2cc1OC` [Example 1126, N-(1,3-Benzodioxol-5-ylcarbonyl)-N′-{3-chloro-4-[(6,7-dimethoxy-4-quinolyl)oxy]phenyl}thiourea]: in experiment [1] (setting [3]), the inhibition at 1 µM was 35%. In experiment [2], the IC50 is greater than 0.1 µM and the inhibition at 0.1 µM came to 70%.

Turning to `CCCCCCCCc1ccc(C(=O)NC(=S)Nc2ccc(Oc3ccnc4cc(OC)c(OC)cc34)cc2)cc1` [Example 1128, N-{4-[(6,7-Dimethoxy-4-quinolyl)oxy]phenyl}-N′-(4-octylbenzoyl)thiourea], the inhibition at 1 µM in experiment [1] (setting [3]) came to 17%. In experiment [2], the IC50 was greater than 0.1 µM and the inhibition at 0.1 µM was 47%.

`COc1cc2nccc(Oc3ccc(NC(=S)NC(=O)N4CCc5ccccc5C4)cc3)c2cc1OC` [Example 1130, N-{4-[(6,7-Dimethoxy-4-quinolyl)oxy]phenyl}-N′-(1,2,3,4-tetrahydro-2-isoquinolylcarbonyl)thiourea]: the IC50 was 0.547 µM in experiment [1] and less than 0.01 µM in experiment [2].

As to `COc1cc2nccc(Oc3ccc(NC(=S)NC(=O)CCC4CCCC4)cc3)c2cc1OC` [Example 1131, N-(3-Cyclopentylpropanoyl)-N′-{4-[(6,7-dimethoxy-4-quinolyl)oxy]phenyl}thiourea], the IC50 in experiment [1] came to 0.192 µM; in experiment [2], 0.051 µM.

Take `COc1cc2ncnc(Oc3ccc(NC(=S)NC(=O)CCC4CCCC4)cc3)c2cc1OC` [Example 1132, N-(3-Cyclopentylpropanoyl)-N′-{4-[(6,7-dimethoxy-4-quinazolinyl)oxy]phenyl}thiourea]: the IC50 was 0.146 µM in experiment [1] and less than 0.01 µM in experiment [2].

As to `COc1cc2ncnc(Oc3ccc(NC(=S)NC(=O)CCc4ccccc4C)cc3)c2cc1OC` [Example 1133, N-{4-[(6,7-Dimethoxy-4-quinazolinyl)oxy]phenyl}-N′-[3-(2-methylphenyl)propanoyl]thiourea], the IC50 in experiment [1] is 0.042 µM; in experiment [2] it was less than 0.01 µM.

For `COc1cc2nccc(Oc3ccc(NC(=S)NC(=O)CCSC)cc3)c2cc1OC` [Example 1135, N-{4-[(6,7-Dimethoxy-4-quinolyl)oxy]phenyl}-N′-[3-(methylsulphenyl)propanoyl]thiourea], the IC50 was 0.239 µM in experiment [1] and less than 0.01 µM in experiment [2].

For `COc1cc2nccc(Oc3ccc(NC(=S)NC(=O)c4ccc(CCl)cc4)cc3)c2cc1OC` [Example 1136, N-[4-(Chloromethyl)benzoyl]-N′-{4-[(6,7-dimethoxy-4-quinolyl)oxy]phenyl}thiourea], the IC50 turned out to be 0.639 µM in experiment [1] and 0.014 µM in experiment [2].

For `COc1cc2nccc(Oc3ccc(NC(=S)NC(=O)c4ccc(CCl)cc4)cc3Cl)c2cc1OC` [Example 1137, N-{3-Chloro-4-[(6,7-dimethoxy-4-quinolyl)oxy]phenyl}-N′-[4-(chloromethyl)benzoyl]thiourea], the inhibition at 1 µM in experiment [1] (setting [3]) was found to be 38%. The IC50 in experiment [2] was found to be 0.028 µM.

Take `COc1cc2ncnc(Oc3ccc(NC(=S)NC(=O)CCCc4ccccc4)cc3)c2cc1OC` [Example 1139, N-{4-[(6,7-Dimethoxy-4-quinazolinyl)oxy]phenyl}-N′-(4-phenylbutanoyl)thiourea]: the IC50 was determined as 0.783 µM in experiment [1] and 0.012 µM in experiment [2].

As for `COc1ccccc1CCC(=O)NC(=S)Nc1ccc(Oc2ncnc3cc(OC)c(OC)cc23)cc1` [Example 1141, N-{4-[(6,7-Dimethoxy-4-quinazolinyl)oxy]phenyl}-N′-[3-(2-methoxyphenyl)propanoyl]thiourea], the IC50 is 0.416 µM in experiment [1] and less than 0.01 µM in experiment [2].

For the compound `COc1cc2ncnc(Oc3ccc(NC(=S)NC(=O)C(C)Oc4ccccc4Cl)cc3)c2cc1OC` (stereo not shown) [Example 1144, N-[2-(2-Chlorophenoxy)propanoyl]-N′-{4-[(6,7-dimethoxy-4-quinazolinyl)oxy]phenyl}thiourea], the inhibition at 1 µM in experiment [1] (setting [3]) came out at 30%. Also, in experiment [2], the IC50 was found to be 0.028 µM.

In the case of `COc1cc2nccc(Oc3ccc(NC(=S)NC(=O)c4ccc(C)s4)cc3)c2cc1OC` [Example 1146, N-{4-[(6,7-Dimethoxy-4-quinolyl)oxy]phenyl}-N′-[(5-methyl-2-thienyl)carbonyl]thiourea], the IC50 in experiment [1] stood at 0.552 µM; in experiment [2] it was 0.023 µM.

As to `COc1cc2nccc(Oc3ccc(NC(=S)NC(=O)Cc4ccccc4)cc3Cl)c2cc1OC` [Example 1147, N-{3-Chloro-4-[(6,7-dimethoxy-4-quinolyl)oxy]phenyl}-N′-(2-phenylacetyl)thiourea], the IC50 in experiment [1] came out at 0.105 µM; in experiment [2], 0.01 µM.

For `COc1cc2ncnc(Oc3ccc(NC(=S)NC(=O)Cc4ccccc4)cc3)c2cc1OC` [Example 1148, N-{4-[(6,7-Dimethoxy-4-quinazolinyl)oxy]phenyl}-N′-(2-phenylacetyl)thiourea], the IC50 in experiment [1] was 0.042 µM; in experiment [2] it was less than 0.01 µM.

Turning to `CCN(C(=S)NC(=O)Cc1ccccc1)c1ccc(Oc2ccnc3cc(OC)c(OC)cc23)cc1` [Example 1149, N-{4-[(6,7-Dimethoxy-4-quinolyl)oxy]phenyl}-N-ethyl-N′-(2-phenylacetyl)thiourea], the values for the IC50 in experiment [1] and in experiment [2] were 0.15 µM and 0.043 µM, respectively.
